Measurements: US20230002397A1, “SMALL MOLECULE DEGRADERS OF HELIOS AND METODS OF USE” (DANA-FARBER CANCER INSTITUTE, INC., priority 2019, published 2023)
Where two headings read alike, the source gives them in different places.

Target: T1, IKZF2 (Homo sapiens, UniProt Q96SW2+Q9UKS7)
T1 construct: CRISPR/Cas9—mediated insertion of the HiBiT peptide tag (Promega™) to the N-terminus of the IKZF2 gene locus; endogenous in cells; host or cells: MOLT4 cells, with CRISPR/Cas9 knock-in of HiBiT at the endogenous IKZF2 locus
T1 sequence (Q9UKS7 whole entry): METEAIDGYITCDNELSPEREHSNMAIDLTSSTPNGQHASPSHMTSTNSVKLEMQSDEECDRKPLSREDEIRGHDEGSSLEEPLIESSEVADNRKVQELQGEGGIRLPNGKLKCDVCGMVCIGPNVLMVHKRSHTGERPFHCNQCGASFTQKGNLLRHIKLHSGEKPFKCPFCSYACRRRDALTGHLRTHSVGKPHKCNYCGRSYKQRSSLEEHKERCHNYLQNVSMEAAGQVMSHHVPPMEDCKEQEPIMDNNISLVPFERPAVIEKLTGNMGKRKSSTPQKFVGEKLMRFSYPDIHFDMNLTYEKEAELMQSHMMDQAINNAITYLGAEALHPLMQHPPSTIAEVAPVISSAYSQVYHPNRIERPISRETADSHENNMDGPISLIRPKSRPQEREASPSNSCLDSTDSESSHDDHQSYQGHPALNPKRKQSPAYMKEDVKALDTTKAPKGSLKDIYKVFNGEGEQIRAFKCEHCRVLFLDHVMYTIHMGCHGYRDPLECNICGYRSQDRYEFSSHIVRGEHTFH
T1 sequence (Q96SW2 whole entry): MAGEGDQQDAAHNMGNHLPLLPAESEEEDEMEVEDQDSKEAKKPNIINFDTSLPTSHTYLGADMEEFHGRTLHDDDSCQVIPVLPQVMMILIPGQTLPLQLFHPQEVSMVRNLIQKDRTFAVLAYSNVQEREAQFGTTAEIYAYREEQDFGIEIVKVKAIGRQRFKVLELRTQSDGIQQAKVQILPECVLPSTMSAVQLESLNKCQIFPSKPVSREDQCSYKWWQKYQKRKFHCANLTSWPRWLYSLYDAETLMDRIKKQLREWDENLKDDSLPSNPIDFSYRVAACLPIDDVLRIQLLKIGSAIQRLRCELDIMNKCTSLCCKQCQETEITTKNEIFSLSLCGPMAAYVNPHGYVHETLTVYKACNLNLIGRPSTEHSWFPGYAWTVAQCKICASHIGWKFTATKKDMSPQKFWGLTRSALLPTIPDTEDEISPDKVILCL
T1 sequence (Q16531 whole entry partner): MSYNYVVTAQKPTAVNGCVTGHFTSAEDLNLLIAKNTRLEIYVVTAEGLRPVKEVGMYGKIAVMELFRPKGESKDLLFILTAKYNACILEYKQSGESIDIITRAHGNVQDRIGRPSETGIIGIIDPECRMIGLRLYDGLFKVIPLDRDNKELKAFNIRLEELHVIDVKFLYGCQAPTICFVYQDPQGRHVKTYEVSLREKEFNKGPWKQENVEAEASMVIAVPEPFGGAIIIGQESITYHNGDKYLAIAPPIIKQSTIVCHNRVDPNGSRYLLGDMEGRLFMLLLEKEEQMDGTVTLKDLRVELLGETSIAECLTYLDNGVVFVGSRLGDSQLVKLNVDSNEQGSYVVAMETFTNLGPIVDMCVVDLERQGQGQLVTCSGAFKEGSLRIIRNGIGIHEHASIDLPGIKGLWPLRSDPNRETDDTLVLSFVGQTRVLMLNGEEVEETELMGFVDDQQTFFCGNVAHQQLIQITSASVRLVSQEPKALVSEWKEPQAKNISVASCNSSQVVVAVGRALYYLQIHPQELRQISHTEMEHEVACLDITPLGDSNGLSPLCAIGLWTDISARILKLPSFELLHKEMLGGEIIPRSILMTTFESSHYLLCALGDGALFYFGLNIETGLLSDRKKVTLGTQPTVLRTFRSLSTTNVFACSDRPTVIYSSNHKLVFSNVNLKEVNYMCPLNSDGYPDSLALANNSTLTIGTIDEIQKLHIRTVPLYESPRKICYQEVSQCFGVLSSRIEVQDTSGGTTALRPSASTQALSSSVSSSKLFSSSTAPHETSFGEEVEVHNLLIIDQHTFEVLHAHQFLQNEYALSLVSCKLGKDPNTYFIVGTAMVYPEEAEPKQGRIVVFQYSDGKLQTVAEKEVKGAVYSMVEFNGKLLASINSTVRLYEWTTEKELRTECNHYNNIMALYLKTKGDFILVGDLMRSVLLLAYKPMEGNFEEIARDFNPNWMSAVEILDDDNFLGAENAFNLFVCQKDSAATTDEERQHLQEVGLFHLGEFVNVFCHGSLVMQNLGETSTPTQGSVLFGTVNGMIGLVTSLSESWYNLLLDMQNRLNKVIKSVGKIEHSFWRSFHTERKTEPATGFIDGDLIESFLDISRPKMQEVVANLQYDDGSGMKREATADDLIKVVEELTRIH
Assay: HiBit-IKZF2 assay (HiBiT-Helios degradation in MOLT4 cells)
Type: cell-based
Details: for Dmax: 10 μM to 0.00026 μM; for DC50: concentration at which 50% of HiBiT-Helios degradation was achieved
Description: The HiBiT protein tagging system was applied to MOLT4 cells via a CRISPR/Cas9—mediated insertion of the HiBiT peptide tag (Promega™) to the N-terminus of the IKZF2 gene locus (Neon™ Transfection System). The resulting HiBiT-Helios stable cell line was treated with the following compounds in triplicates following a 13-point concentration scheme ranging from 10 μM to 0.00026 μM. At the indicated timepoints, the Nano-Glo® HiBiT Lytic Detection System (Promega™) was utilized for detecting bioluminescence of the HiBiT tag in treated cells: abundance of the tag is proportionate to the level of luminescence. Following normalization to DMSO, dose-response curves were plotted (GraphPad Prism) to determine the concentration points at which 50% of HiBiT-Helios degradation was achieved by each compound. The extent of degradation (range of luminescence) from the highest to lowest concentration points was calculated to determine the Dmax.

[1] = MOLT-4, extent of degradation from highest to lowest concentration, read-out: Dmax

| Compound | Dmax [1] | DC50 | Dmax (extent of degradation from highest to lowest concentration) |
| --- | --- | --- | --- |
| O=C1CCC(N2Cc3cc(C4CCN(Cc5cccc(S(=O)(=O)N6CCC7(CC7)C6)c5)CC4)ccc3C2=O)C(=O)N1 (centres unmarked) [Compound 60] | 50 to 70% | 10 to 30 nM |  |
| O=C1CCC(N2Cc3cc(C4(O)CCN(Cc5ccc(F)cc5)CC4)ccc3C2=O)C(=O)N1 (centres unmarked) [Compound 258] | > 70% | < 10 nM |  |
| O=C1CCC(N2Cc3cc(C4CCN(Cc5cccc(N6CCC7(CC7)C6=O)c5)CC4)ccc3C2=O)C(=O)N1 (centres unmarked) [Compound 10] | 30 to 50% | 10 to 30 nM |  |
| O=C1CCC(N2Cc3cc(C4(O)CCN(Cc5ccc(OC(F)F)cc5)CC4)ccc3C2=O)C(=O)N1 (centres unmarked) [Compound 247] | > 70% | < 10 nM |  |
| O=C1CCC(N2Cc3cc(C4(O)CCN(Cc5cccc(F)c5F)CC4)ccc3C2=O)C(=O)N1 (centres unmarked) [Compound 243] | > 70% | < 10 nM |  |
| O=C1CCC(N2Cc3cc(C4CCN(Cc5cccc(S(=O)(=O)N6C7CCC6COC7)c5)CC4)ccc3C2=O)C(=O)N1 (centres unmarked) [Compound 162] | 50 to 70% | < 10 nM |  |
| O=C1CCC(N2Cc3cc(C4(O)CCN(Cc5cccc6c5CCN(c5ccccn5)C6=O)CC4)ccc3C2=O)C(=O)N1 (centres unmarked) [Compound 202] | 50 to 70% | < 10 nM |  |
| O=C1CCC(N2Cc3cc(C4(O)CCN(Cc5ccc(Cl)cc5)CC4)ccc3C2=O)C(=O)N1 (centres unmarked) [Compound 268] | > 70% | < 10 nM |  |
| N#Cc1cccc(CN2CCC(O)(c3ccc4c(c3)CN(C3CCC(=O)NC3=O)C4=O)CC2)c1 (centres unmarked) [Compound 238] | > 70% | < 10 nM |  |
| O=C1CCC(N2Cc3cc(C4CCN(Cc5cccc(S(=O)(=O)N6CC7C(C6)C7(F)F)c5)CC4)ccc3C2=O)C(=O)N1 (centres unmarked) [Compound 59] | 50 to 70% | < 10 nM |  |
| O=C1CCC(N2Cc3cc(C4(O)CCN(Cc5cc(F)cc(F)c5)CC4)ccc3C2=O)C(=O)N1 (centres unmarked) [Compound 205] | > 70% | < 10 nM |  |

Results, then the compound that gave them:

| Dmax [1] | DC50 | Dmax (extent of degradation from highest to lowest concentration) | Compound |
| --- | --- | --- | --- |
| 50 to 70% | 10 to 30 nM |  | Cc1ccccc1N1Cc2ccc(CN3CCC(c4ccc5c(c4)CN(C4CCC(=O)NC4=O)C5=O)CC3)cc2C1=O (centres unmarked) [Compound 214] |
| 30 to 50% | < 10 nM |  | O=C1CCC(N2Cc3cc(C4CCN(Cc5cccc6c5CN(c5ccccc5)C6=O)CC4)ccc3C2=O)C(=O)N1 (centres unmarked) [Compound 113] |
| 50 to 70% | 10 to 30 nM |  | O=C1CCC(N2Cc3cc(C4CCN(Cc5ccc6c(c5)CN(c5ccccc5)C6=O)CC4)ccc3C2=O)C(=O)N1 (centres unmarked) [Compound 123] |
| 50 to 70% | 30 to 150 nM |  | O=C1CCC(N2Cc3cc(C4CCN(Cc5ccnc(C(=O)Nc6ccccc6)c5)CC4)ccc3C2=O)C(=O)N1 (centres unmarked) [Compound 131] |
| 50 to 70% | < 10 nM |  | O=C1CCC(N2Cc3cc(C4CCN(Cc5ccnc(Nc6ccccc6)c5)CC4)ccc3C2=O)C(=O)N1 (centres unmarked) [Compound 137] |
| > 70% | 10 to 30 nM |  | Cc1cccc(N2Cc3ccc(CN4CCC(c5ccc6c(c5)CN(C5CCC(=O)NC5=O)C6=O)CC4)cc3C2=O)c1 (centres unmarked) [Compound 215] |
| 50 to 70% | 10 to 30 nM |  | CP(C)(=O)c1cccc(Nc2cccc(CN3CCC(c4ccc5c(c4)CN(C4CCC(=O)NC4=O)C5=O)CC3)c2)c1 (centres unmarked) [Compound 135, 3-(5-(1-(3-((3-(dimethylphosphoryl)phenyl)amino)benzyl)piperidin-4-yl)-1-oxoisoindolin-2-yl)piperidine-2,6-dione] |
| 30 to 50% | 30 to 150 nM |  | O=C1CCC(N2Cc3cc(C4CCN(Cc5cccc6c5C(=O)N(c5ccccc5)C6)CC4)ccc3C2=O)C(=O)N1 (centres unmarked) [Compound 121] |
| 50 to 70% | < 10 nM |  | O=C1CCC(N2Cc3cc(C4CCN(Cc5ccc6c(c5)C(=O)N(c5ccccc5F)C6)CC4)ccc3C2=O)C(=O)N1 (centres unmarked) [Compound 174] |
|  | 10 to 30 nM | ++ (“++” is from >50% to <70%) | O=C1CCC(N2Cc3cc(C4CCN(Cc5ccc6c(c5F)C(=O)N(c5ccccc5)C6)CC4)ccc3C2=O)C(=O)N1 (centres unmarked) [Compound 213] |
| 30 to 50% | 30 to 150 nM |  | O=C1CCC(N2Cc3cc(C4CCN(Cc5cccc(N6C(=O)Cc7cccnc76)c5)CC4)ccc3C2=O)C(=O)N1 (centres unmarked) [Compound 118] |
| 50 to 70% | < 10 nM |  | O=C1CCC(N2Cc3cc(C4CCN(Cc5ccnc(Nc6ccccn6)c5)CC4)ccc3C2=O)C(=O)N1 (centres unmarked) [Compound 115] |
| > 70% | 30 to 150 nM |  | O=C1CCC(N2Cc3cc(C4CCN(Cc5ccc6c(c5)C(=O)N(c5cccc(Cl)c5)C6)CC4)ccc3C2=O)C(=O)N1 (centres unmarked) [Compound 176] |
| 50 to 70% | 10 to 30 nM |  | O=C1CCC(N2Cc3cc(C4CCN(Cc5nccc(Nc6ccccn6)n5)CC4)ccc3C2=O)C(=O)N1 (centres unmarked) [Compound 102] |
